Source: patent US11510869B2, “Medical devices including medicaments and methods of making and using same including enhancing comfort, enhancing drug penetration, and treatment of myopia” (priority 2010, dated 2022)
“Also recorded” adds a separate entry of the source. Read-outs that look alike come from different tables or passages of the source.

Tests used:
[1] = at therapeutic doses; cited from earlier work
myopia progression = details: cited from earlier work; for Control of myopia progression / Side effects: 0.01% atropine eye drops
[2] = Ink testing of HA loaded ink; assay type: physicochemical
Description: Required amount of HA was directly added in an ink, followed by sonication for 15 minutes, thus providing HA in a polymer matrix.
In case of HA, which was HEMA monomer ink insoluble, its particulate form (without processing) is loaded in ink along with Tween 20, followed by sonication for 5 to 60 minutes.
The following table provides results of ink testing.

[3] = HA loaded ink, direct HA loading, 2% drug loading

Question: With `CCNC(=O)CCC/C=C\C[C@@H]1[C@@H](/C=C/[C@@H](O)CCc2ccccc2)[C@H](O)C[C@@H]1O` [Bimatoprost] as the compound, how does the “Systemic or local toxicity” value [1] read?
Answer: Its value is “minimal systemic or local toxicity”.

Question: With `CN1[C@@H]2CC[C@H]1C[C@@H](OC(=O)C(CO)c1ccccc1)C2` (stereo partly drawn) [Atropine] as the compound, how does the “Control of myopia progression” value (myopia progression) read?
Answer: The value was “effective in reducing the progression of myopia”.

Question: And the Side effects (myopia progression)?
Answer: Its Side effects is “cycloplegia; also recorded: Photophobia; also recorded: elevation of intraocular pressures; also recorded: Risk of angle closure glaucoma”.

Question: And the “Control of myopia progression” value (myopia progression; listed as atropine)?
Answer: Its value is “ability to control the progress of myopia; also recorded: effective in controlling myopia progression”.

Question: What about the Side effects (myopia progression; listed as atropine) of the same compound?
Answer: Its Side effects is “limited side effects; also recorded: minimal side effects”.

Question: And the “Effect of discontinuation of atropine treatment” value (myopia progression; in some cases)?
Answer: Its value is “rebound of myopia progression”.

Question: And the Progression of myopia (myopia progression; low dose atropine drops in combination with multifocal glasses)?
Answer: Its Progression of myopia is “slow the progression of myopia”.

Question: What does the source list for Hyaluronic Acid [Hyaluronic Acid (HA)]?
Answer: EST (mN/m) [2, 3]: 36.03 mN/m; Particle/globule size (nm) [2, 3]: 1227 nm; Viscosity (c.p.) [2, 3]: 12.6 c.p.; pH [2, 3]: 6; Solubility in HEMA monomer ink ([2]; HEMA monomer ink): insoluble
